Reference: patent US10562878B2, “Cycloalkylamines as monoamine reuptake inhibitors” (Sunovion Pharmaceuticals Inc., priority 2006, dated 2020)
Structures can show the parent of a compound that is named as a salt. Where two headings read alike, the source gives them in different places.

Legend:
[1] = molecular target: human serotonin transporter (Homo sapiens (Human), UniProt P31645); assay: Serotonin functional uptake assay, recombinant human transporter in HEK-293 cells; type: cell-based
[2] = molecular target: human dopamine transporter (Homo sapiens (Human), UniProt Q01959); assay: Dopamine functional uptake assay, recombinant human transporter in CHO-K1 or HEK293 cells; type: cell-based; conditions: read-out: hDAT IC50
Chain of human dopamine transporter (Q01959 whole entry): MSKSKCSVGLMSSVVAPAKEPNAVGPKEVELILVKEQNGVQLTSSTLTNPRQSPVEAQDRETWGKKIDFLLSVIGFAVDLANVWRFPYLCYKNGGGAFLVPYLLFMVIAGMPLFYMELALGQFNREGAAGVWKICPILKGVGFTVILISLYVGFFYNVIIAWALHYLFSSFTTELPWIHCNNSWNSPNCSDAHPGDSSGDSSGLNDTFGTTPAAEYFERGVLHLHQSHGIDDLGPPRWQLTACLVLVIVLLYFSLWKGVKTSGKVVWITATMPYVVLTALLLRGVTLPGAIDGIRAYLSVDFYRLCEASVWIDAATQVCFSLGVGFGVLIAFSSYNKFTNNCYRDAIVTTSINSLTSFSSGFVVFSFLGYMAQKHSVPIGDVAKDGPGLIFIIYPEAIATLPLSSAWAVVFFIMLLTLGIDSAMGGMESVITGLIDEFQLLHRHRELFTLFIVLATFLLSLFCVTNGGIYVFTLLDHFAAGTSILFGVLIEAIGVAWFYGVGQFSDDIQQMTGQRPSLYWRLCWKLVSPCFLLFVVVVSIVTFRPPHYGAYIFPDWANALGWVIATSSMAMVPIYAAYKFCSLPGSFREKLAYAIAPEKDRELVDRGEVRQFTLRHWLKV

[3] = molecular target: 5-HT Transporter (SERT) sites in mouse brain (Mus musculus (Mouse), UniProt Q60857); assay: Ex vivo [3H] citalopram binding to SERT sites in mouse brain after oral dosing; conditions: mice, 60 min after treatment
[4] = molecular target: DA Transporter (DAT) sites in mouse brain (Mus musculus (Mouse), UniProt Q61327); assay: Ex vivo [3H] WIN 35428 binding to DAT sites in mouse brain after oral dosing; conditions: mice, 60 min after treatment
[5] = Human serotonin transporter uptake, read-out: hSERT IC50

Chain of human serotonin transporter (P31645 whole entry): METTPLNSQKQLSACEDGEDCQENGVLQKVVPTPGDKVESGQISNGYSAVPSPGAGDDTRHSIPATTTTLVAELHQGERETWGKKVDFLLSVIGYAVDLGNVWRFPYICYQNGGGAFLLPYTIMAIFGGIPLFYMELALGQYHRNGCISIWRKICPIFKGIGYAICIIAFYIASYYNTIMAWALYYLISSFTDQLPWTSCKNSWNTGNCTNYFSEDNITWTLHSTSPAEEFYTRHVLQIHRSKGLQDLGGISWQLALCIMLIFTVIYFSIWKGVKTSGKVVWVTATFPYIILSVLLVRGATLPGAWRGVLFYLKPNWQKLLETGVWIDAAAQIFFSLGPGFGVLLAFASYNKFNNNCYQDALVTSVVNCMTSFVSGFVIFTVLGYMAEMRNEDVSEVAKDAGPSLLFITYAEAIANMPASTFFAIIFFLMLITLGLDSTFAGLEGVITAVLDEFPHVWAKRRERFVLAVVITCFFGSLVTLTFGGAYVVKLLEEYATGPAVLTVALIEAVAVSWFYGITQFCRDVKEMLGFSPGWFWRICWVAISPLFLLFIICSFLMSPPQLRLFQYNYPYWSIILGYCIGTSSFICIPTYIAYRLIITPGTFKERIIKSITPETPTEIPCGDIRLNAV

Structure (SMILES)	IC50 [1, 5] [nM]	IC50 [2] [nM]	also measured
CN(C)C[C@@]1(c2ccc(Cl)c(Cl)c2)CCCC[C@H]1O (single isomer, unassigned) [152 E1, cis-2-(3,4-dichlorophenyl)-2-((dimethylamino)methyl)cyclohexanol]	405	[…]	
NC[C@@]1(c2ccc(Cl)c(Cl)c2)CCC[C@H](O)C1 (single isomer, unassigned) [185 E1, Trans-3-(aminomethyl)-3-(3,4-dichlorophenyl)cyclohexanol]		421	
CN(C)C[C@@]1(c2ccc(Cl)c(F)c2)CCCC[C@H]1O (single isomer, unassigned) [157 E1, Cis-2-(4-chloro-3-fluorophenyl)-2-((dimethylamino)methyl)cyclohexanol]	1300	575	
CNC[C@@]1(c2ccc(C(F)(F)F)cc2)CCCC[C@H]1O (single isomer, unassigned) [143 E2, cis-2-((methylamino)methyl)-2-(4-(trifluoromethyl)phenyl)cyclohexanol]	7170		
C[C@@H]1CCCC[C@@]1(CN)c1ccc(Cl)c(Cl)c1 (racemic) [Compound 174, (±)-cis-(1-(3,4-dichlorophenyl)-2-methylcyclohexyl)methanamine hydrochloride]	246	2780	
COc1ccc([C@]2(CN(C)C)CCCC[C@H]2O)cc1 (single isomer, unassigned) [155 E1, Cis-2-((dimethylamino)methyl)-2-(4-methoxyphenyl)cyclohexanol]	2990		
CC1(O)CCC(CN)(c2ccc(Cl)c(Cl)c2)CC1 (centres unmarked) [Compound 275, 4-(aminomethyl)-4-(3,4-dichlorophenyl)-1-methylcyclohexanol]		518	
CNC[C@]1(c2cccc(Cl)c2)CCCC[C@H]1O (single isomer, unassigned) [138 E2, trans-2-(3-chlorophenyl)-2-((methylamino)methyl)cyclohexanol]	7000	2540	
CN(C)C[C@]1(c2ccc(Cl)c(Cl)c2)CCC[C@H](O)C1 (single isomer, unassigned) [190 E1, Cis-3-(3,4-dichlorophenyl)-3-((dimethylamino)methyl)cyclohexanol]		24	
CNC[C@]1(c2ccc(C(F)(F)F)cc2)CCCC[C@H]1O (single isomer, unassigned) [144 E1, trans-2-((Methylamino)methyl)-2-(4-(trifluoromethyl)phenyl) cyclohexanol]	5630		
CN(C)C[C@@]1(c2ccc(Cl)c(Cl)c2)CCC[C@H](O)C1 (single isomer, unassigned) [191 E2, Trans-3-(3,4-dichlorophenyl)-3-((dimethylamino)methyl)cyclohexanol]		2	
CN(C)C[C@]1(c2ccc(Cl)c(Cl)c2)CCCC[C@H]1O (single isomer, unassigned) [153 E1, trans-2-(3,4-dichlorophenyl)-2-((dimethylamino)methyl)cyclohexanol]	17	[…]	
C[C@@H]1CCCC[C@@]1(CN(C)C)c1ccc(Cl)c(Cl)c1 (racemic) [Compound 175, (±) cis-1-(1-(3,4-dichlorophenyl)-2-methylcyclohexyl)-N,N-dimethylmethanamine hydrochloride]	55	125	
CC1(O)CCC(CN)(c2ccc(Cl)c(Cl)c2)CC1 (centres unmarked) [Compound 272, 4-(aminomethyl)-4-(3,4-dichlorophenyl)-1-methylcyclohexanol]		2600	
CN(C)C[C@@]1(c2ccc(C(F)(F)F)cc2)CCCC[C@H]1O (single isomer, unassigned) [159 E2, cis-2-((dimethylamino)methyl)-2-(4-(trifluoromethyl)phenyl)cyclohexanol]	42	2310	
CN(C)C[C@@]1(c2ccc(Cl)c(Cl)c2)CCCC[C@H]1O (single isomer, unassigned) [152 E2, cis-2-(3,4-dichlorophenyl)-2-((dimethylamino)methyl)cyclohexanol]	77	[…]	
CN(C)C[C@]1(c2ccc(Cl)cc2)CCCC[C@H]1O (single isomer, unassigned) [154 E1, trans-2-(4-chlorophenyl)-2-((dimethylamino)methyl)cyclohexanol]	2170	795	
CNC[C@]1(c2ccc(OC(F)(F)F)cc2)CCCC[C@H]1O (single isomer, unassigned) [146 E2, trans-2-((Methylamino)methyl)-2-(4-(trifluoromethoxy)phenyl) cyclohexanol]	2280		

Structure (SMILES)	IC50 [1, 5] [nM]	IC50 [2] [nM]	also measured
CNC[C@]1(c2ccc(OC)cc2)CCCC[C@H]1O (single isomer, unassigned) [140 E1, (±) trans-2-(4-Methoxyphenyl)-2-((methylamino)methyl)cyclohexanol]	2690	8820	
CNC[C@@]1(c2ccc(OC(F)(F)F)cc2)CCCC[C@H]1O (single isomer, unassigned) [145 E2, cis-2-((Methylamino)methyl)-2-(4-(trifluoromethoxy)phenyl) cyclohexanol]	220	6520	
NC[C@]1(c2ccc(Cl)c(Cl)c2)CCC[C@H](O)C1 (single isomer, unassigned) [184 E2, Cis-3-(aminomethyl)-3-(3,4-dichlorophenyl)cyclohexanol]		789	
CNC[C@@]1(c2ccc(Cl)c(Cl)c2)CCCC[C@H]1C (racemic) [Compound 176, (±) cis-1-(1-(3,4-dichlorophenyl)-2-methylcyclohexyl)-N-methylmethanamine]	533	775	
COc1ccc([C@@]2(CN(C)C)CCCC[C@H]2O)cc1 (single isomer, unassigned) [156 E1, trans-2-((dimethylamino)methyl)-2-(4-methoxyphenyl)cyclohexanol]	76	1310	
CN(C)C[C@]1(c2ccc(Cl)c(F)c2)CCCC[C@H]1O (single isomer, unassigned) [158 E1, Trans-2-(4-chloro-3-fluorophenyl)-2-((dimethylamino)methyl)cyclohexanol]	8440	945	
CNC[C@@]1(c2ccc(OC(F)(F)F)cc2)CCCC[C@H]1O (single isomer, unassigned) [145 E1, cis-2-((Methylamino)methyl)-2-(4-(trifluoromethoxy)phenyl) cyclohexanol]	75	4730	
CNC[C@]1(c2cccc(Cl)c2)CCCC[C@H]1O (single isomer, unassigned) [138 E1, trans-2-(3-chlorophenyl)-2-((methylamino)methyl)cyclohexanol]		918	IC50 ([1]; hSERT IC50): > 10000 nM
CNC[C@]1(c2ccc(Cl)cc2)CCCC[C@H]1O (single isomer, unassigned) [136 E2, trans-2-(4-chlorophenyl)-2-((methylamino)methyl)-cyclohexanol]		3370	
CNC[C@]1(c2ccc(OC(F)(F)F)cc2)CCCC[C@H]1O (single isomer, unassigned) [146 E1, trans-2-((Methylamino)methyl)-2-(4-(trifluoromethoxy)phenyl) cyclohexanol]	4540		
CN(C)C[C@]1(c2ccc(C(F)(F)F)cc2)CCCC[C@H]1O (single isomer, unassigned) [160 E1, trans-2-((dimethylamino)methyl)-2-(4-(trifluoromethyl)phenyl)cyclohexanol]	7190	9720	
CNC(C)C1(c2ccc3ccccc3c2)CCCCC1 (single isomer, unassigned) [58 E1, N-methyl-1-(1-(naphthalen-2-yl)cyclohexyl)ethanamine]			SERT Mean Specific Binding ± S.E.M. ([3]; 1 mg/kg PO): 3245 ± 107 dpm; SERT Mean Specific Binding ± S.E.M. ([3]; 3 mg/kg PO): 3021 ± 182 dpm; SERT Mean Specific Binding ± S.E.M. ([3]; 10 mg/kg PO): 1799 ± 115 dpm; SERT Mean Specific Binding ± S.E.M. ([3]; 30 mg/kg PO): 469 ± 43 dpm; receptor occupancy at 1 mg/kg ([3]; mouse, 1 mg/kg PO): 5%; receptor occupancy at 3 mg/kg ([3]; mouse, 3 mg/kg PO): 11%; receptor occupancy at 10 mg/kg ([3]; mouse, 10 mg/kg PO): 47%; receptor occupancy at 30 mg/kg ([3]; mouse, 30 mg/kg PO): 86%; DAT Mean Specific Binding ± S.E.M. ([4]; 1 mg/kg PO): 15732 ± 1360 dpm; DAT Mean Specific Binding ± S.E.M. ([4]; 3 mg/kg PO): 14938 ± 2613 dpm; DAT Mean Specific Binding ± S.E.M. ([4]; 10 mg/kg PO): 17215 ± 2151 dpm; DAT Mean Specific Binding ± S.E.M. ([4]; 30 mg/kg PO): 12876 ± 2152 dpm; receptor occupancy at 1 mg/kg ([4]; mouse, 1 mg/kg PO): 7%; receptor occupancy at 3 mg/kg ([4]; mouse, 3 mg/kg PO): 11%; receptor occupancy at 10 mg/kg ([4]; mouse, 10 mg/kg PO): -2%; receptor occupancy at 30 mg/kg ([4]; mouse, 30 mg/kg PO): 24%
COc1ccc([C@]2(CN(C)C)CCCC[C@H]2O)cc1 (single isomer, unassigned) [155 E2, Cis-2-((dimethylamino)methyl)-2-(4-methoxyphenyl)cyclohexanol]	6280		
NC[C@@]1(c2ccc(Cl)c(Cl)c2)CCC[C@H](O)C1 (single isomer, unassigned) [185 E2, Trans-3-(aminomethyl)-3-(3,4-dichlorophenyl)cyclohexanol]		121	
NC[C@]1(c2ccc(Cl)c(Cl)c2)CC[C@H](O)CC1 [Compound 299, (1s,4s)-4-(aminomethyl)-4-(3,4-dichlorophenyl)cyclohexanol]	3870		
NC[C@]1(c2ccc(Cl)c(Cl)c2)CCC[C@H](O)C1 (single isomer, unassigned) [184 E1, Cis-3-(aminomethyl)-3-(3,4-dichlorophenyl)cyclohexanol]		213	
CNC[C@]1(c2ccc(Cl)cc2)CCCC[C@H]1O (single isomer, unassigned) [136 E1, trans-2-(4-chlorophenyl)-2-((methylamino)methyl)-cyclohexanol]		2870	
CNC[C@]1(c2ccc(OC)cc2)CCCC[C@H]1O (single isomer, unassigned) [140 E2, (±) trans-2-(4-Methoxyphenyl)-2-((methylamino)methyl)cyclohexanol]		5670	
